Columns and labels:
[1] = excess molar enthalpy (molar enthalpy of mixing); xn = mol fraction of the nth substance listed; conditions: 318.15 K, 101.3 kPa, Liquid
[2] = xn = mol fraction of the nth substance listed; conditions: 318.15 K, 101.3 kPa, Liquid

CCCCOC(C)=O [butyl ethanoate] + CCCCCCC
Conditions	excess molar enthalpy [kJ/mol]	excess molar volume [m3/mol]
[1], x1 = 0.0596	0.275	–
[1], x1 = 0.1274	0.501	–
[1], x1 = 0.1982	0.689	–
[1], x1 = 0.2667	0.819	–
[1], x1 = 0.3335	0.912	–
[1], x1 = 0.3922	0.964	–
[1], x1 = 0.4492	0.984	–
[1], x1 = 0.5003	0.988	–
[1], x1 = 0.5104	0.983	–
[1], x1 = 0.5381	0.979	–
[1], x1 = 0.5567	0.97	–
[1], x1 = 0.6057	0.938	–
[1], x1 = 0.6593	0.882	–
[1], x1 = 0.7144	0.794	–
[1], x1 = 0.7729	0.674	–
[1], x1 = 0.8331	0.528	–
[1], x1 = 0.8932	0.355	–
[1], x1 = 0.9488	0.184	–
[2], x1 = 0.0555	–	1.92e-07
[2], x1 = 0.1132	–	3.36e-07
[2], x1 = 0.1672	–	4.34e-07
[2], x1 = 0.22	–	5.12e-07
[2], x1 = 0.2722	–	5.77e-07
[2], x1 = 0.3229	–	6.09e-07
[2], x1 = 0.3726	–	6.31e-07
[2], x1 = 0.4298	–	6.52e-07
[2], x1 = 0.4755	–	6.52e-07
[2], x1 = 0.5265	–	6.24e-07
[2], x1 = 0.5779	–	5.89e-07
[2], x1 = 0.6271	–	5.55e-07
[2], x1 = 0.6607	–	5.13e-07
[2], x1 = 0.7709	–	3.86e-07
[2], x1 = 0.8611	–	2.64e-07
[2], x1 = 0.9342	–	1.22e-07

CCCCOC(C)=O [butyl ethanoate] + CCCCCCCCC
Conditions	excess molar enthalpy [kJ/mol]	excess molar volume [m3/mol]
[1], x1 = 0.0779	0.342	–
[1], x1 = 0.1485	0.612	–
[1], x1 = 0.2301	0.838	–
[1], x1 = 0.3059	0.993	–
[1], x1 = 0.3775	1.09	–
[1], x1 = 0.442	1.13	–
[1], x1 = 0.5	1.14	–
[1], x1 = 0.5519	1.11	–
[1], x1 = 0.5963	1.07	–
[1], x1 = 0.6435	1.02	–
[1], x1 = 0.6936	0.948	–
[1], x1 = 0.7461	0.849	–
[1], x1 = 0.8009	0.719	–
[1], x1 = 0.8533	0.561	–
[1], x1 = 0.9067	0.378	–
[1], x1 = 0.9568	0.188	–
[2], x1 = 0.0761	–	2.63e-07
[2], x1 = 0.1325	–	4.29e-07
[2], x1 = 0.1914	–	5.63e-07
[2], x1 = 0.2533	–	6.69e-07
[2], x1 = 0.3151	–	7.6e-07
[2], x1 = 0.3713	–	8.09e-07
[2], x1 = 0.4229	–	8.37e-07
[2], x1 = 0.4749	–	8.55e-07
[2], x1 = 0.5222	–	8.55e-07
[2], x1 = 0.5765	–	8.31e-07
[2], x1 = 0.6275	–	7.98e-07
[2], x1 = 0.6744	–	7.55e-07
[2], x1 = 0.7062	–	7.07e-07
[2], x1 = 0.8023	–	5.38e-07
[2], x1 = 0.8838	–	3.43e-07
[2], x1 = 0.9444	–	1.75e-07

CCOC(C)=O [ethyl acetate] + CCCCCCC
Conditions	excess molar enthalpy [kJ/mol]	excess molar volume [m3/mol]
[1], x1 = 0.0803	0.471	–
[1], x1 = 0.1683	0.838	–
[1], x1 = 0.2488	1.13	–
[1], x1 = 0.323	1.33	–
[1], x1 = 0.395	1.45	–
[1], x1 = 0.4614	1.5	–
[1], x1 = 0.5037	1.51	–
[1], x1 = 0.546	1.52	–
[1], x1 = 0.5784	1.49	–
[1], x1 = 0.5813	1.49	–
[1], x1 = 0.6222	1.43	–
[1], x1 = 0.6647	1.35	–
[1], x1 = 0.7146	1.24	–
[1], x1 = 0.7646	1.09	–
[1], x1 = 0.8157	0.907	–
[1], x1 = 0.8649	0.711	–
[1], x1 = 0.9129	0.482	–
[1], x1 = 0.9591	0.249	–
[2], x1 = 0.0808	–	4.63e-07
[2], x1 = 0.143	–	7.33e-07
[2], x1 = 0.2084	–	9.35e-07
[2], x1 = 0.2751	–	1.105e-06
[2], x1 = 0.3329	–	1.204e-06
[2], x1 = 0.3968	–	1.263e-06
[2], x1 = 0.4462	–	1.303e-06
[2], x1 = 0.5057	–	1.309e-06
[2], x1 = 0.5536	–	1.289e-06
[2], x1 = 0.6019	–	1.236e-06
[2], x1 = 0.6506	–	1.163e-06
[2], x1 = 0.6848	–	1.107e-06
[2], x1 = 0.7249	–	1.019e-06
[2], x1 = 0.8166	–	7.67e-07
[2], x1 = 0.8964	–	4.43e-07
[2], x1 = 0.9478	–	2.47e-07

CCCCCCCCCCCCCCCCC [heptadecane] + CCCCCOC(C)=O
Conditions	excess molar enthalpy [kJ/mol]	excess molar volume [m3/mol]
[1], x2 = 0.0881	0.422	–
[1], x2 = 0.1856	0.786	–
[1], x2 = 0.2815	1.08	–
[1], x2 = 0.3678	1.28	–
[1], x2 = 0.4492	1.38	–
[1], x2 = 0.5202	1.42	–
[1], x2 = 0.5818	1.41	–
[1], x2 = 0.6246	1.36	–
[1], x2 = 0.6651	1.29	–
[1], x2 = 0.7105	1.19	–
[1], x2 = 0.7575	1.08	–
[1], x2 = 0.807	0.932	–
[1], x2 = 0.8571	0.754	–
[1], x2 = 0.905	0.544	–
[1], x2 = 0.9532	0.303	–
[2], x2 = 0.1194	–	3.74e-07
[2], x2 = 0.1753	–	5.21e-07
[2], x2 = 0.2989	–	7.64e-07
[2], x2 = 0.3689	–	8.67e-07
[2], x2 = 0.421	–	9.1e-07
[2], x2 = 0.4657	–	9.43e-07
[2], x2 = 0.5081	–	9.6e-07
[2], x2 = 0.5464	–	9.64e-07
[2], x2 = 0.6072	–	9.39e-07
[2], x2 = 0.6743	–	8.96e-07
[2], x2 = 0.7316	–	8.42e-07
[2], x2 = 0.7894	–	7.23e-07
[2], x2 = 0.8384	–	6.22e-07
[2], x2 = 0.8842	–	4.84e-07
[2], x2 = 0.9288	–	3.29e-07
[2], x2 = 0.9702	–	1.42e-07

CCCCCCCCCCCCCCCCC [heptadecane] + CCCCOC(C)=O
Conditions	excess molar enthalpy [kJ/mol]	excess molar volume [m3/mol]
[1], x2 = 0.0954	0.462	–
[1], x2 = 0.1878	0.841	–
[1], x2 = 0.2686	1.13	–
[1], x2 = 0.3397	1.33	–
[1], x2 = 0.4009	1.46	–
[1], x2 = 0.4599	1.55	–
[1], x2 = 0.5118	1.6	–
[1], x2 = 0.5532	1.6	–
[1], x2 = 0.5903	1.6	–
[1], x2 = 0.5962	1.59	–
[1], x2 = 0.6293	1.54	–
[1], x2 = 0.6674	1.47	–
[1], x2 = 0.7073	1.39	–
[1], x2 = 0.7491	1.27	–
[1], x2 = 0.7926	1.13	–
[1], x2 = 0.8356	0.97	–
[1], x2 = 0.8781	0.783	–
[1], x2 = 0.9208	0.557	–
[1], x2 = 0.9615	0.299	–
[2], x2 = 0.0632	–	1.97e-07
[2], x2 = 0.104	–	3.47e-07
[2], x2 = 0.1206	–	3.85e-07
[2], x2 = 0.1949	–	5.9e-07
[2], x2 = 0.2755	–	7.8e-07
[2], x2 = 0.3444	–	9e-07
[2], x2 = 0.4115	–	9.79e-07
[2], x2 = 0.4696	–	1.048e-06
[2], x2 = 0.515	–	1.082e-06
[2], x2 = 0.5713	–	1.082e-06
[2], x2 = 0.6623	–	1.03e-06
[2], x2 = 0.7646	–	9.06e-07
[2], x2 = 0.842	–	6.95e-07
[2], x2 = 0.8976	–	5.2e-07
[2], x2 = 0.9384	–	3.47e-07
[2], x2 = 0.9717	–	1.79e-07

CCCCCCCCCCCCCCCCC [heptadecane] + CCCOC(C)=O
Conditions	excess molar enthalpy [kJ/mol]	excess molar volume [m3/mol]
[1], x2 = 0.0838	0.481	–
[1], x2 = 0.1596	0.871	–
[1], x2 = 0.2462	1.26	–
[1], x2 = 0.3255	1.55	–
[1], x2 = 0.3884	1.7	–
[1], x2 = 0.4477	1.82	–
[1], x2 = 0.4925	1.87	–
[1], x2 = 0.5313	1.89	–
[1], x2 = 0.5702	1.89	–
[1], x2 = 0.6288	1.83	–
[1], x2 = 0.6644	1.77	–
[1], x2 = 0.7023	1.69	–
[1], x2 = 0.7423	1.59	–
[1], x2 = 0.7826	1.45	–
[1], x2 = 0.8239	1.29	–
[1], x2 = 0.8654	1.1	–
[1], x2 = 0.9064	0.849	–
[1], x2 = 0.9452	0.579	–
[1], x2 = 0.9772	0.278	–
[2], x2 = 0.2332	–	8.02e-07
[2], x2 = 0.3167	–	1.017e-06
[2], x2 = 0.4087	–	1.166e-06
[2], x2 = 0.4759	–	1.235e-06
[2], x2 = 0.5393	–	1.28e-06
[2], x2 = 0.5977	–	1.276e-06
[2], x2 = 0.6463	–	1.246e-06
[2], x2 = 0.6916	–	1.225e-06
[2], x2 = 0.7628	–	1.103e-06
[2], x2 = 0.8202	–	9.42e-07
[2], x2 = 0.891	–	6.77e-07
[2], x2 = 0.9375	–	4.38e-07
[2], x2 = 0.9705	–	2.25e-07

CCCCCCCCCCCCCCCCC [heptadecane] + CCOC(C)=O
Conditions	excess molar enthalpy [kJ/mol]	excess molar volume [m3/mol]
[1], x2 = 0.0911	0.569	–
[1], x2 = 0.1754	1.03	–
[1], x2 = 0.2543	1.44	–
[1], x2 = 0.3274	1.73	–
[1], x2 = 0.394	1.95	–
[1], x2 = 0.4566	2.12	–
[1], x2 = 0.512	2.2	–
[1], x2 = 0.558	2.23	–
[1], x2 = 0.6007	2.22	–
[1], x2 = 0.634	2.19	–
[1], x2 = 0.6486	2.17	–
[1], x2 = 0.6818	2.11	–
[1], x2 = 0.7172	2.03	–
[1], x2 = 0.7538	1.94	–
[1], x2 = 0.7913	1.78	–
[1], x2 = 0.8271	1.64	–
[1], x2 = 0.8653	1.43	–
[1], x2 = 0.9018	1.2	–
[1], x2 = 0.9382	0.921	–
[1], x2 = 0.9719	0.507	–
[2], x2 = 0.1461	–	6.4e-07
[2], x2 = 0.2562	–	1.04e-06
[2], x2 = 0.3512	–	1.284e-06
[2], x2 = 0.4324	–	1.449e-06
[2], x2 = 0.5057	–	1.538e-06
[2], x2 = 0.5143	–	1.548e-06
[2], x2 = 0.5756	–	1.565e-06
[2], x2 = 0.5814	–	1.562e-06
[2], x2 = 0.6778	–	1.503e-06
[2], x2 = 0.7269	–	1.41e-06
[2], x2 = 0.7898	–	1.273e-06
[2], x2 = 0.8421	–	1.081e-06
[2], x2 = 0.903	–	7.83e-07
[2], x2 = 0.9457	–	5.1e-07
[2], x2 = 0.9685	–	3.18e-07

Reference: the NIST ThermoML archive (doi:10.1016/j.jct.2003.11.008)
